Results published in patent US10183950B2, “Thienopyrimidine inhibitors of atypical protein kinase C” (Cancer Research Technology Limited, priority 2011, dated 2019).

target: T1, full-length human PKCι (Homo sapiens, UniProt P41743); assay: PKCι IC50 IMAP fluorescence polarisation assay, full-length enzyme; format: biochemical; conditions: full length PKCi at 15 μM ATP; read-out: IC50 in IMAP assay against full length PKCi
T1 construct: Recombinant, full-length human PKCι expressed in Sf21 insect cells is also commercially available; purchased; host or cells: Sf21 insect cells
T1 sequence (P41743 1-596): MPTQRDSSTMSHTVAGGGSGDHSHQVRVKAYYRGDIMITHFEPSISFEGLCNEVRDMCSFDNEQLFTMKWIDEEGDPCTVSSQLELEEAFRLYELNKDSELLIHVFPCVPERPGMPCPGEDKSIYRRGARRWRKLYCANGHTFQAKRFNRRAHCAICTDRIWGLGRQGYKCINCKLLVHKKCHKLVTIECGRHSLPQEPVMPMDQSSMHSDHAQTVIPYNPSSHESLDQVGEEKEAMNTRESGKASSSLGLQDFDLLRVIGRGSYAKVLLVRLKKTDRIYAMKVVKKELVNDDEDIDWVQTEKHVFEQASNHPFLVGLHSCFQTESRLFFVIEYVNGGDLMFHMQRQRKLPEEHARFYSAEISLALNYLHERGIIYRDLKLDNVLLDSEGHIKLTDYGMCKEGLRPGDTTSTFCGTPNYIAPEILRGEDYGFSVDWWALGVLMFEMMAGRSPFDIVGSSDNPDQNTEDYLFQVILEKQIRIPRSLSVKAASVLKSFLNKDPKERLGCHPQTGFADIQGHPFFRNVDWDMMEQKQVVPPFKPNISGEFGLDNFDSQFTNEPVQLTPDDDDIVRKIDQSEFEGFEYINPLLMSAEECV

| SMILES | IC50 [nM] |
| --- | --- |
| COc1ccncc1-c1c(C)sc2c(NC[C@@H](N)Cc3ccccc3)nc(-c3ccncc3)nc12 [compound 439, (S)-N*1*-[7-(4-Methoxy-pyridin-3-yl)-6-methyl-2-pyridin-4-yl-thieno[3,2-d]pyrimidin-4-yl]-3-phenyl-propane-1,2-diamine] | 10000 to 40000 |
| Cc1cc(Nc2csc3c(N[C@@H]4CCNC4)nc(-c4ccncc4F)nc23)no1 [compound 496, 2-(3-Fluoro-pyridin-4-yl)-N*7*-(5-methyl-isoxazol-3-yl)-N*4*-(R)-pyrrolidin-3-yl-thieno[3,2-d]pyrimidine-4,7-diamine] | 10000 to 40000 |
| C[C@H](O)C#Cc1csc2c(NC[C@@H](N)Cc3ccccc3)nc(-c3ccncc3)nc12 [compound 533, (S)-4-[4-((S)-2-Amino-3-phenyl-propylamino)-2-pyridin-4-yl-thieno[3,2-d]pyrimidin-7-yl]-but-3-yn-2-ol] | < 100 |
| N[C@H](CNc1nc(-c2ccncc2)nc2c(C#Cc3ccccc3)csc12)Cc1ccccc1 [compound 402, (S)-3-Phenyl-N*1*-(7-phenylethynyl-2-pyridin-4-yl-thieno[3,2-d]pyrimidin-4-yl)-propane-1,2-diamine] | 100 to 1000 |
| CC(C)(C)NC(=O)Nc1cc(-c2nc(N[C@@H]3CCNC3)c3sccc3n2)ccn1 [compound 582, 1-tert-Butyl-3-{4-[4-((R)-pyrrolidin-3-ylamino)-thieno[3,2-d]pyrimidin-2-yl]-pyridin-2-yl}-urea] | 1000 to 10000 |
| N[C@H](CNc1nc(-c2ccncc2)nc2c(C3CC3)csc12)Cc1ccccc1 [compound 413, (S)-N*1*-(7-Cyclopropyl-2-pyridin-4-yl-thieno[3,2-d]pyrimidin-4-yl)-3-phenyl-propane-1,2-diamine] | < 100 |
| N[C@H](CNc1nc(-c2ccncc2)nc2c(-c3ccc[nH]3)csc12)Cc1ccccc1 [compound 397, (S)-3-Phenyl-N*1*-[2-pyridin-4-yl-7-(1H-pyrrol-2-yl)-thieno[3,2-d]pyrimidin-4-yl]-propane-1,2-diamine] | 100 to 1000 |
| Cc1cc(Nc2csc3c(NC[C@@H](N)Cc4ccccc4)nc(-c4ccncc4)nc23)no1 [compound 490, N*4*-((S)-2-Amino-3-phenyl-propyl)-N*7*-(5-methyl-isoxazol-3-yl)-2-pyridin-4-yl-thieno[3,2-d]pyrimidine-4,7-diamine] | < 100 |
| CC(C)(C)[Si](C)(C)C#Cc1csc2c(NC[C@@H](N)Cc3ccccc3)nc(-c3ccncc3)nc12 [compound 399, (S)-N*1*-{7-[(tert-Butyl-dimethyl-silanyl)-ethynyl]-2-pyridin-4-yl-thieno[3,2-d]pyrimidin-4-yl}-3-phenyl-propane-1,2-diamine] | 1000 to 10000 |
| COc1cccc(C(=O)Nc2cc(-c3nc(N[C@@H]4CCNC4)c4sccc4n3)ccn2)c1 [compound 596, 3-Methoxy-N-{4-[4-((R)-pyrrolidin-3-ylamino)-thieno[3,2-d]pyrimidin-2-yl]-pyridin-2-yl}-benzamide] | 100 to 1000 |
| CC[C@](C)(O)C#Cc1csc2c(NC[C@@H](N)Cc3ccccc3)nc(-c3ccncc3)nc12 [compound 523, (S)-1-[4-((S)-2-Amino-3-phenyl-propylamino)-2-pyridin-4-yl-thieno[3,2-d]pyrimidin-7-yl]-3-methyl-pent-1-yn-3-ol] | 100 to 1000 |
| C/C=C\c1csc2c(NC[C@@H](N)Cc3ccccc3)nc(-c3ccncc3)nc12 [compound 407, (S)-3-Phenyl-N*1*-[7-((Z)-propenyl)-2-pyridin-4-yl-thieno[3,2-d]pyrimidin-4-yl]-propane-1,2-diamine] | < 100 |
| NC(=O)CNc1nc(-c2ccncc2)nc2c(Br)csc12 [compound 338, 2-(7-Bromo-2-pyridin-4-yl-thieno[3,2-d]pyrimidin-4-ylamino)-acetamide] | 10000 to 40000 |

Next, values leading:

| IC50 [nM] | SMILES |
| --- | --- |
| 1000 to 10000 | NCCNc1nc(-c2ccncc2)nc2c(-c3ccc(Br)cc3)csc12 [compound 310, N*1*-[7-(4-Bromo-phenyl)-2-pyridin-4-yl-thieno[3,2-d]pyrimidin-4-yl]-ethane-1,2-diamine] |
| 1000 to 10000 | Cc1c(-c2ccn[nH]2)sc2c(N[C@@H]3CCNC3)nc(-c3ccncc3)nc12 [compound 389, [7-Methyl-6-(2H-pyrazol-3-yl)-2-pyridin-4-yl-thieno[3,2-d]pyrimidin-4-yl]-(R)-pyrrolidin-3-yl-amine] |
| 1000 to 10000 | NC(CNc1nc(-c2ccncc2F)nc2c(-c3ccc(F)cc3)csc12)Cc1ccccc1 (stereo in doubt) [compound 430, (R)-N*1*-[7-(4-Fluoro-phenyl)-2-(3-fluoro-pyridin-4-yl)-thieno[3,2-d]pyrimidin-4-yl]-3-phenyl-propane-1,2-diamine] |
| < 100 | C#Cc1csc2c(NC[C@@H](N)Cc3ccccc3)nc(-c3ccncc3)nc12 [compound 541, (S)-N*1*-(7-Ethynyl-2-pyridin-4-yl-thieno[3,2-d]pyrimidin-4-yl)-3-phenyl-propane-1,2-diamine] |
| 1000 to 10000 | O=C(Nc1cc(-c2nc(N[C@@H]3CCNC3)c3sccc3n2)ccn1)N1CCCCC1 [compound 584, Piperidine-1-carboxylic acid {4-[4-((R)-pyrrolidin-3-ylamino)-thieno[3,2-d]pyrimidin-2-yl]-pyridin-2-yl}-amide] |
| 10000 to 40000 | CCC(C)(C)C(=O)Nc1csc2c(NC[C@@H](N)Cc3ccccc3)nc(-c3ccncc3)nc12 [compound 472, N-[4-((S)-2-Amino-3-phenyl-propylamino)-2-pyridin-4-yl-thieno[3,2-d]pyrimidin-7-yl]-2,2-dimethyl-butyramide] |
| 10000 to 40000 | COc1ccccc1C[C@H](N)CNc1nc(-c2ccncc2)nc2c(Br)c(C(C)(C)C)sc12 [compound 303, (S)—N*1*-(7-bromo-6-tert-butyl-2-pyridin-4-yl-thieno[3,2-d]pyrimidin-4-yl)-3-(2-methoxy-phenyl)-propane-1,2-diamine] |
| 10000 to 40000 | N[C@@H]1CCN(c2nc(-c3ccncc3)nc3ccsc23)C1 [compound 318, (R)-1-(2-Pyridin-4-yl-thieno[3,2-d]pyrimidin-4-yl)-pyrrolidin-3-ylamine] |
| 1000 to 10000 | c1cc(-c2nc(N[C@@H]3CCNC3)c3sccc3n2)cc(Nc2ccc(CN3CCCC3)cc2)n1 [compound 611, (R)-Pyrrolidin-3-yl-{2-[2-(4-pyrrolidin-1-ylmethyl-phenylamino)-pyridin-4-yl]-thieno[3,2-]pyrimidin-4-yl}-amine] |
| 1000 to 10000 | Brc1csc2c(N[C@H]3CCNC3)nc(-c3ccncc3)nc12 [compound 344, (7-Bromo-2-pyridin-4-yl-thieno[3,2-d]pyrimidin-4-yl)-(S)-pyrrolidin-3-yl-amine] |
| 1000 to 10000 | Cc1noc(C)c1-c1csc2c(NC[C@@H](N)Cc3ccccc3)nc(-c3ccncc3)nc12 [compound 392, N*1*-[7-(3,5-Dimethyl-isoxazol-4-yl)-2-pyridin-4-yl-thieno[3,2-d]pyrimidin-4-yl]-3-phenyl-propane-1,2-diamine] |
| 10000 to 40000 | O=S(=O)(Nc1cc(-c2nc(N[C@@H]3CCNC3)c3sccc3n2)ccn1)C1CC1 [compound 622, Cyclopropanesulfonic acid {4-[4-((R)-pyrrolidin-3-ylamino)-thieno[3,2-d]pyrimidin-2-yl]-pyridin-2-yl}-amide] |
| 1000 to 10000 | CCc1cc(-c2csc3c(NC[C@@H](N)Cc4ccccc4)nc(-c4ccncc4)nc23)no1 [compound 570, (S)-N*1*-[7-(5-Ethyl-isoxazol-3-yl)-2-pyridin-4-yl-thieno[3,2-d]pyrimidin-4-yl]-3-phenyl-propane-1,2-diamine] |

same assay, conditions: full length PKCi at 15 μM ATP; read-out: IC50 in IMAP assay against full length PKCi (Activity)

| SMILES | IC50 [nM] |
| --- | --- |
| N[C@@H](CNc1nc(-c2ccncc2)nc2sc3c(c12)CCN(C(=O)c1ccccc1)C3)Cc1ccccc1 [compound 73, [4-((R)-2-Amino-3-phenyl-propylamino)-2-pyridin-4-yl-5,8-dihydro-6H-pyrido[4′,3′:4,5]thieno[2,3-d]pyrimidin-7-yl]-phenyl-methanone] | 1000 to 10000 |
| Cc1ccccc1C[C@H](N)CNc1nc(-c2ccncc2)nc2sc3c(c12)CCCC3 [compound 53, (S)-N*1*-(2-Pyridin-4-yl-5,6,7,8-tetrahydro-benzo[4,5]thieno[2,3-d]pyrimidin-4-yl)-3-o-tolyl-propane-1,2-diamine] | 100 to 1000 |
| N[C@@H](CNc1nc(-c2ccncc2)nc2sc3c(c12)CCSC3)Cc1ccccc1 [compound 81, (R)-3-Phenyl-N*1*-(2-pyridin-4-yl-5,8-dihydro-6H-thiopyrano[4′,3′:4,5]thieno[2,3-d]pyrimidin-4-yl)-propane-1,2-diamine] | 1000 to 10000 |
| N[C@H](CNc1nc(-c2ccncc2)nc2sc3c(c12)CCCC3)Cc1cscn1 [compound 59, (S)-N*1*-(2-Pyridin-4-yl-5,6,7,8-tetrahydro-benzo[4,5]thieno[2,3-d]pyrimidin-4-yl)-3-thiazol-4-yl-propane-1,2-diamine] | 100 to 1000 |
| N[C@@H](CNc1nc(-c2ccncc2)nc2sc3c(c12)CCC1(C3)OCCO1)Cc1ccccc1 [compound 79, (R)-3-Phenyl-N*1*-*-1,4-Dioxa-spiro[7.7]-(2-pyridin-4-yl-5,6,7,8-tetrahydro-benzo[4,5]thieno[2,3-d]pyrimidin-4-yl)-propane-1,2-diamine] | 100 to 1000 |
